{
  "source": "patent US6914045B2",
  "about": "“Glycopeptide antibiotics” (Wyeth Holdings Corporation, priority 2001, dated 2005)",
  "assay_in_all_cases": "in vitro antibacterial evaluation, MIC by broth dilution",
  "format_in_all_cases": "cell-based",
  "key": {"Enterococcus sp.": {"system": "Enterococcus sp.", "conditions": "broth dilution, 18 hours at 35° C.", "procedure,_shortened": "(§1)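 Broth dilution per NCCLS M7-A2 in Mueller-Hinton II medium, inoculum 5×10^5 CFU/mL, antibiotic range 64-0.06 μg/mL. MIC taken as lowest concentration inhibiting growth; Gram-positive panel includes recent clinical isolates resistant to methicillin, penicillin and/or vancomycin.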"}, "Staphylococcus sp.": {"system": "Staphylococcus sp.", "conditions": "broth dilution, 18 hours at 35° C.", "procedure,_shortened": "as §1"}, "Streptococcus sp.": {"system": "Streptococcus sp.", "conditions": "broth dilution, 18 hours at 35° C.", "procedure,_shortened": "as §1"}, "Escherichia coli": {"system": "Escherichia coli", "conditions": "18 hours at 35° C."}},
  "data": [
    {"smiles": "Cc1ccc(COCC2OC(OC3C(CO)OC(Oc4ccc(CC5NC(=O)C(C(C)c6ccccc6)NC(=O)CNC(=O)C(CO)NC(=O)C(C(O)C6CNC(=N)N6C6OC(CO)C(O)C(O)C6O)NC(=O)C(C(O)C6CNC(=N)N6)NC5=O)cc4)C(O)C3O)C(O)C(O)C2O)cc1", "note": "(stereo not shown) [Example 234]", "values": [
      {"measurement": "MIC Enterococcus avium (GC 4558)", "setting": "Enterococcus sp.", "result": 8, "unit": "µg/mL"},
      {"measurement": "MIC Enterococcus faecalis (ATCC 29212)", "setting": "Enterococcus sp.", "result": 8, "unit": "µg/mL"},
      {"measurement": "MIC Enterococcus faecalis (GC 2242)", "setting": "Enterococcus sp.", "result": 4, "unit": "µg/mL"},
      {"measurement": "MIC Enterococcus faecalis (GC 2691)", "setting": "Enterococcus sp.", "result": 8, "unit": "µg/mL"},
      {"measurement": "MIC Enterococcus faecalis (GC 3059)", "setting": "Enterococcus sp.", "result": 8, "unit": "µg/mL"},
      {"measurement": "MIC Enterococcus faecalis (GC 4552)", "setting": "Enterococcus sp.", "result": 8, "unit": "µg/mL"},
      {"measurement": "MIC Enterococcus faecalis (GC 4553)", "setting": "Enterococcus sp.", "result": 8, "unit": "µg/mL"},
      {"measurement": "MIC Enterococcus faecalis (GC 4554)", "setting": "Enterococcus sp.", "result": 8, "unit": "µg/mL"},
      {"measurement": "MIC Enterococcus faecalis (GC 6189)", "setting": "Enterococcus sp.", "result": 8, "unit": "µg/mL"},
      {"measurement": "MIC Enterococcus faecium (GC 2243)", "setting": "Enterococcus sp.", "result": 8, "unit": "µg/mL"},
      {"measurement": "MIC Enterococcus faecium (GC 4556)", "setting": "Enterococcus sp.", "result": 8, "unit": "µg/mL"},
      {"measurement": "MIC Enterococcus faecium (GC 4557)", "setting": "Enterococcus sp.", "result": 2, "unit": "µg/mL"},
      {"measurement": "MIC Enterococcus faecalis (ATCC 29212)", "setting": "Enterococcus sp.; strain ATCC 29212", "result": 8, "unit": "µg/mL"},
      {"measurement": "MIC Enterococcus faecium (GC 2243)", "setting": "Enterococcus sp.; strain GC 2243", "result": 8, "unit": "µg/mL"},
      {"measurement": "MIC Enterococcus faecalis (GC 4552)", "setting": "Enterococcus sp.; strain GC 4552", "result": 8, "unit": "µg/mL"},
      {"measurement": "MIC Enterococcus faecalis (GC 4553)", "setting": "Enterococcus sp.; strain GC 4553", "result": 8, "unit": "µg/mL"},
      {"measurement": "MIC Enterococcus faecalis (GC 4554)", "setting": "Enterococcus sp.; strain GC 4554", "result": 8, "unit": "µg/mL"},
      {"measurement": "MIC Enterococcus faecium (GC 4556)", "setting": "Enterococcus sp.; strain GC 4556", "result": 8, "unit": "µg/mL"},
      {"measurement": "MIC Enterococcus faecium (GC 4557)", "setting": "Enterococcus sp.; strain GC 4557", "result": 2, "unit": "µg/mL"},
      {"measurement": "MIC Enterococcus avium (GC 4558)", "setting": "Enterococcus sp.; strain GC 4558", "result": 8, "unit": "µg/mL"},
      {"measurement": "MIC Enterococcus faecalis (GC 6189)", "setting": "Enterococcus sp.; strain GC 6189", "result": 8, "unit": "µg/mL"},
      {"measurement": "MIC Enterococcus faecalis (GC 2242)", "setting": "Enterococcus sp.; inoculum 5×10^5 CFU/mL, strain GC 2242", "result": 4, "unit": "µg/mL"},
      {"measurement": "MIC Enterococcus faecalis (GC 2691)", "setting": "Enterococcus sp.; inoculum 5×10^5 CFU/mL, strain GC 2691", "result": 8, "unit": "µg/mL"},
      {"measurement": "MIC Enterococcus faecalis (GC 3059)", "setting": "Enterococcus sp.; inoculum 5×10^5 CFU/mL, strain GC 3059", "result": 8, "unit": "µg/mL"},
      {"measurement": "MIC Coagulase Negative Staphylococcus (GC 4547)", "setting": "Staphylococcus sp.", "result": 1, "unit": "µg/mL"},
      {"measurement": "MIC Coagulase Negative Staphylococcus (GC 4548)", "setting": "Staphylococcus sp.", "result": 1, "unit": "µg/mL"},
      {"measurement": "MIC Coagulase Negative Staphylococcus (GC 4549)", "setting": "Staphylococcus sp.", "result": 0.5, "unit": "µg/mL"},
      {"measurement": "MIC Coagulase Negative Staphylococcus (GC 4551)", "setting": "Staphylococcus sp.", "result": 2, "unit": "µg/mL"},
      {"measurement": "MIC Coagulase Negative Staphylococcus (GC 6257)", "setting": "Staphylococcus sp.", "result": 1, "unit": "µg/mL"},
      {"measurement": "MIC Staphylococcus aureus (ATCC 29213)", "setting": "Staphylococcus sp.", "result": 2, "unit": "µg/mL"},
      {"measurement": "MIC Staphylococcus aureus (GC 1131)", "setting": "Staphylococcus sp.", "result": 2, "unit": "µg/mL"},
      {"measurement": "MIC Staphylococcus aureus (GC 3051)", "setting": "Staphylococcus sp.", "result": 2, "unit": "µg/mL"},
      {"measurement": "MIC Staphylococcus aureus (GC 3053)", "setting": "Staphylococcus sp.", "result": 2, "unit": "µg/mL"},
      {"measurement": "MIC Staphylococcus aureus (GC 4541)", "setting": "Staphylococcus sp.", "result": 2, "unit": "µg/mL"},
      {"measurement": "MIC Staphylococcus aureus (GC 4542)", "setting": "Staphylococcus sp.", "result": 2, "unit": "µg/mL"},
      {"measurement": "MIC Staphylococcus aureus (GC 4544)", "setting": "Staphylococcus sp.", "result": 2, "unit": "µg/mL"},
      {"measurement": "MIC Staphylococcus aureus (GC 4545)", "setting": "Staphylococcus sp.", "result": 2, "unit": "µg/mL"},
      {"measurement": "MIC Staphylococcus aureus-SMITH (GC 4543)", "setting": "Staphylococcus sp.", "result": 2, "unit": "µg/mL"},
      {"measurement": "MIC Staphylococcus haemolyticus (GC 4546)", "setting": "Staphylococcus sp.", "result": 1, "unit": "µg/mL"},
      {"measurement": "MIC Staphylococcus aureus (ATCC 29213)", "setting": "Staphylococcus sp.; strain ATCC 29213", "result": 2, "unit": "µg/mL"},
      {"measurement": "MIC Staphylococcus aureus (GC 1131)", "setting": "Staphylococcus sp.; strain GC 1131", "result": 2, "unit": "µg/mL"},
      {"measurement": "MIC Staphylococcus aureus (GC 3051)", "setting": "Staphylococcus sp.; strain GC 3051", "result": 2, "unit": "µg/mL"},
      {"measurement": "MIC Staphylococcus aureus (GC 3053)", "setting": "Staphylococcus sp.; strain GC 3053", "result": 2, "unit": "µg/mL"},
      {"measurement": "MIC Staphylococcus aureus (GC 4541)", "setting": "Staphylococcus sp.; strain GC 4541", "result": 2, "unit": "µg/mL"},
      {"measurement": "MIC Staphylococcus aureus (GC 4542)", "setting": "Staphylococcus sp.; strain GC 4542", "result": 2, "unit": "µg/mL"},
      {"measurement": "MIC Staphylococcus aureus-SMITH (GC 4543)", "setting": "Staphylococcus sp.; strain GC 4543", "result": 2, "unit": "µg/mL"},
      {"measurement": "MIC Staphylococcus aureus (GC 4544)", "setting": "Staphylococcus sp.; strain GC 4544", "result": 2, "unit": "µg/mL"},
      {"measurement": "MIC Staphylococcus aureus (GC 4545)", "setting": "Staphylococcus sp.; strain GC 4545", "result": 2, "unit": "µg/mL"},
      {"measurement": "MIC Staphylococcus haemolyticus (GC 4546)", "setting": "Staphylococcus sp.; strain GC 4546", "result": 1, "unit": "µg/mL"},
      {"measurement": "MIC Coagulase Negative Staphylococcus (GC 4547)", "setting": "Staphylococcus sp.; strain GC 4547", "result": 1, "unit": "µg/mL"},
      {"measurement": "MIC Coagulase Negative Staphylococcus (GC 4548)", "setting": "Staphylococcus sp.; strain GC 4548", "result": 1, "unit": "µg/mL"},
      {"measurement": "MIC Coagulase Negative Staphylococcus (GC 4549)", "setting": "Staphylococcus sp.; strain GC 4549", "result": 0.5, "unit": "µg/mL"},
      {"measurement": "MIC Coagulase Negative Staphylococcus (GC 4551)", "setting": "Staphylococcus sp.; strain GC 4551", "result": 2, "unit": "µg/mL"},
      {"measurement": "MIC Coagulase Negative Staphylococcus (GC 6257)", "setting": "Staphylococcus sp.; strain GC 6257", "result": 1, "unit": "µg/mL"},
      {"measurement": "MIC Streptococcus agalactiae (GC 4564)", "setting": "Streptococcus sp.", "result": 0.5, "unit": "µg/mL"},
      {"measurement": "MIC Streptococcus pneumoniae (ATCC 6301)", "setting": "Streptococcus sp.", "result": 0.25, "unit": "µg/mL"},
      {"measurement": "MIC Streptococcus pneumoniae (GC 1894)", "setting": "Streptococcus sp.", "result": 0.12, "unit": "µg/mL"},
      {"measurement": "MIC Streptococcus pneumoniae (GC 4565)", "setting": "Streptococcus sp.", "result": 0.25, "unit": "µg/mL"},
      {"measurement": "MIC Streptococcus pyogenes (GC 4563)", "setting": "Streptococcus sp.", "result": 0.5, "unit": "µg/mL"},
      {"measurement": "MIC Streptococcus pneumoniae (ATCC 6301)", "setting": "Streptococcus sp.; inoculum 5×10^5 CFU/mL, strain ATCC 6301", "result": 0.25, "unit": "µg/mL"},
      {"measurement": "MIC Streptococcus pneumoniae (GC 1894)", "setting": "Streptococcus sp.; inoculum 5×10^5 CFU/mL, strain GC 1894", "result": 0.12, "unit": "µg/mL"},
      {"measurement": "MIC Streptococcus pyogenes (GC 4563)", "setting": "Streptococcus sp.; inoculum 5×10^5 CFU/mL, strain GC 4563", "result": 0.5, "unit": "µg/mL"},
      {"measurement": "MIC Streptococcus agalactiae (GC 4564)", "setting": "Streptococcus sp.; inoculum 5×10^5 CFU/mL, strain GC 4564", "result": 0.5, "unit": "µg/mL"},
      {"measurement": "MIC Streptococcus pneumoniae (GC 4565)", "setting": "Streptococcus sp.; inoculum 5×10^5 CFU/mL, strain GC 4565", "result": 0.25, "unit": "µg/mL"},
      {"measurement": "MIC Escherichia coli (ATCC 25922)", "setting": "Escherichia coli", "result": 64, "unit": "µg/mL"},
      {"measurement": "MIC Escherichia coli (GC 4559)", "setting": "Escherichia coli", "result": 64, "unit": "µg/mL"},
      {"measurement": "MIC Escherichia coli (GC 4560)", "setting": "Escherichia coli", "result": 1, "unit": "µg/mL"}
    ]}
  ]
}
